Values after ≈ are worked out from the molar mass of the structure shown.
Legend:
Assay type in all cases: functional
Streptococcus pyogenes [1] = experiment: Antibacterial activity against constitutive macrolide-lincosamide-streptogramin B-resistant Streptococcus pyogenes B0544 by agar microdilution method
Moraxella catarrhalis = experiment: Antibacterial activity against Moraxella catarrhalis B0324 by agar microdilution method
Haemophilus influenzae = experiment: Antibacterial activity against Haemophilus influenzae B0529 by agar microdilution method
Streptococcus pyogenes [2] = experiment: Antibacterial activity against erythromycin A-susceptible Streptococcus pyogenes B0542 by agar microdilution method
Streptococcus pneumoniae [3] = experiment: Antibacterial activity against constitutive macrolide-lincosamide-streptogramin B-resistant Streptococcus pneumoniae B0627 by agar microdilution method
Staphylococcus aureus [4] = experiment: Antibacterial activity against efflux-resistant Staphylococcus aureus B0331 by agar microdilution method
Staphylococcus aureus [5] = experiment: Antibacterial activity against constitutive macrolide-lincosamide-streptogramin B-resistant Staphylococcus aureus B0330 by agar microdilution method
Streptococcus pyogenes [6] = experiment: Antibacterial activity against inducible macrolide-lincosamide-streptogramin B-resistant Streptococcus pyogenes B0543 by agar microdilution method
Streptococcus pneumoniae [7] = experiment: Antibacterial activity against erythromycin A-susceptible Streptococcus pneumoniae B0541 by agar microdilution method
Streptococcus pyogenes [8] = experiment: Antibacterial activity against efflux-resistant Streptococcus pyogenes B0545 by agar microdilution method
Staphylococcus aureus [9] = experiment: Antibacterial activity against erythromycin A-susceptible Staphylococcus aureus B0329 by agar microdilution method
Staphylococcus aureus [10] = experiment: Antibacterial activity against inducible macrolide-lincosamide-streptogramin B-resistant Staphylococcus aureus B0538 by agar microdilution method
Streptococcus pneumoniae [11] = experiment: Antibacterial activity against efflux-resistant Streptococcus pneumoniae B0326 by agar microdilution method

SMILES | MIC (Streptococcus pyogenes [1]) [µg/mL] | MIC (Moraxella catarrhalis) [µg/mL] | MIC (Haemophilus influenzae) [µg/mL] | MIC (Streptococcus pyogenes [2]) [µg/mL] | MIC (Streptococcus pneumoniae [3]) [µg/mL] | MIC (Staphylococcus aureus [4]) [µg/mL] | MIC (Staphylococcus aureus [5]) [µg/mL] | MIC (Streptococcus pyogenes [6]) [µg/mL] | MIC (Streptococcus pneumoniae [7]) [µg/mL] | MIC (Streptococcus pyogenes [8]) [µg/mL] | MIC (Staphylococcus aureus [9]) [µg/mL] | MIC (Staphylococcus aureus [10]) [µg/mL] | MIC (Streptococcus pneumoniae [11]) [µg/mL]
CC[C@H]1OC(=O)[C@H](C)C(=O)[C@H](C)[C@@H](O[C@@H]2O[C@H](C)C[C@H](N(C)C)[C@H]2O)[C@](C)(OC/C=C/c2cccc3ccccc23)C[C@@H](C)NC(=O)[C@H](C)[C@H](O)[C@@]1(C)O | > 64 | 0.25 (≈ 0.331 µM) | 8 (≈ 10.6 µM) | 0.25 (≈ 0.331 µM) | > 64 | 4 (≈ 5.3 µM) | > 64 | 4 (≈ 5.3 µM) | ≤ 0.125 | 2 (≈ 2.65 µM) | 1 (≈ 1.32 µM) | 2 (≈ 2.65 µM) | 2 (≈ 2.65 µM)
CC[C@H]1OC(=O)[C@H](C)C(=O)[C@H](C)[C@@H](O[C@@H]2O[C@H](C)C[C@H](N(C)C)[C@H]2O)[C@](C)(OC/C=C/c2cnc3ccccc3c2)C[C@@H](C)C(=O)N[C@H](C)[C@H](O)[C@@]1(C)OC/C=C/c1cnc2ccccc2c1 | 8 (≈ 8.67 µM) | 0.125 (≈ 0.135 µM) | 4 (≈ 4.33 µM) | ≤ 0.125 | 4 (≈ 4.33 µM) | 0.5 (≈ 0.542 µM) | > 64 | 0.5 (≈ 0.542 µM) | ≤ 0.125 | 0.5 (≈ 0.542 µM) | ≤ 0.125 | 0.25 (≈ 0.271 µM) | 0.5 (≈ 0.542 µM)
CC[C@H]1OC(=O)[C@H](C)C(=O)[C@H](C)[C@@H](O[C@@H]2O[C@H](C)C[C@H](N(C)C)[C@H]2O)[C@](C)(OCC(O)CN2CCN(c3ccc4c(c3)c(=O)c(C(=O)O)cn4C3CC3)CC2)C[C@@H](C)NC(=O)[C@H](C)[C@H](O)[C@@]1(C)O (some centres undefined) | 4 (≈ 4.17 µM) | 1 (≈ 1.04 µM) | 2 (≈ 2.09 µM) | ≤ 0.125 | 1 (≈ 1.04 µM) | 2 (≈ 2.09 µM) | > 64 | 0.25 (≈ 0.261 µM) | ≤ 0.125 | 2 (≈ 2.09 µM) | 0.25 (≈ 0.261 µM) | 0.25 (≈ 0.261 µM) | 0.5 (≈ 0.522 µM)
CC[C@H]1OC(=O)[C@H](C)C(=O)[C@H](C)[C@@H](O[C@@H]2O[C@H](C)C[C@H](N(C)C)[C@H]2O)[C@](C)(OC/C=C/c2cnc3ccccc3c2)C[C@@H](C)C(=O)N[C@H](C)[C@H](O)[C@@]1(C)O | > 64 | 2 (≈ 2.65 µM) | 32 (≈ 42.3 µM) | 0.5 (≈ 0.661 µM) | 64 (≈ 84.7 µM) | 16 (≈ 21.2 µM) | > 64 | 64 (≈ 84.7 µM) | 2 (≈ 2.65 µM) | 4 (≈ 5.29 µM) | 8 (≈ 10.6 µM) | 16 (≈ 21.2 µM) | 8 (≈ 10.6 µM)
CC[C@H]1OC(=O)[C@H](C)C(=O)[C@H](C)[C@@H](O[C@@H]2O[C@H](C)C[C@H](N(C)C)[C@H]2O)[C@](C)(OCC(O)CNCCc2cccnc2)C[C@@H](C)NC(=O)[C@H](C)[C@H](O)[C@@]1(C)O (some centres undefined) | 32 (≈ 41.7 µM) | 1 (≈ 1.3 µM) | 8 (≈ 10.4 µM) | 0.25 (≈ 0.326 µM) | 2 (≈ 2.61 µM) | 4 (≈ 5.22 µM) | > 64 | 4 (≈ 5.22 µM) | 0.5 (≈ 0.652 µM) | 2 (≈ 2.61 µM) | 4 (≈ 5.22 µM) | 8 (≈ 10.4 µM) | 8 (≈ 10.4 µM)
CC[C@H]1OC(=O)[C@H](C)C(=O)[C@H](C)[C@@H](O[C@@H]2O[C@H](C)C[C@H](N(C)C)[C@H]2O)[C@](C)(OCC(O)CNCCc2ccccc2)C[C@@H](C)NC(=O)[C@H](C)[C@H](O)[C@@]1(C)O (some centres undefined) | 16 (≈ 20.9 µM) | 0.5 (≈ 0.653 µM) | 16 (≈ 20.9 µM) | 0.5 (≈ 0.653 µM) | 8 (≈ 10.4 µM) | 8 (≈ 10.4 µM) | > 64 | 1 (≈ 1.31 µM) | 0.25 (≈ 0.326 µM) | 1 (≈ 1.31 µM) | 4 (≈ 5.22 µM) | 16 (≈ 20.9 µM) | 16 (≈ 20.9 µM)
C=CCO[C@@]1(C)[C@@H](CC)OC(=O)[C@H](C)C(=O)[C@H](C)[C@@H](O[C@@H]2O[C@H](C)C[C@H](N(C)C)[C@H]2O)[C@](C)(OCC=C)C[C@@H](C)C(=O)N[C@H](C)[C@@H]1O [3-O-DESCLADINOSYL-6,12-DI-O-ALLYL-3-OXO-9A-AZA-9A-HOMOERYTHROMYCIN A] | > 64 | ≤ 0.125 | 16 (≈ 23.9 µM) | 2 (≈ 2.99 µM) | > 64 | 16 (≈ 23.9 µM) | > 64 | 32 (≈ 47.8 µM) | 2 (≈ 2.99 µM) | 8 (≈ 12 µM) | 8 (≈ 12 µM) | 8 (≈ 12 µM) | 4 (≈ 5.98 µM)
CC[C@H]1OC(=O)[C@H](C)C(=O)[C@H](C)[C@@H](O[C@@H]2O[C@H](C)C[C@H](N(C)C)[C@H]2O)[C@](C)(OC[C@@H](O)CN2CCN(c3ccc4c(c3F)c(=O)c(C(=O)O)cn4C3CC3)CC2)C[C@@H](C)NC(=O)[C@H](C)[C@H](O)[C@@]1(C)O | 2 (≈ 2.05 µM) | ≤ 0.125 | ≤ 0.125 | ≤ 0.125 | ≤ 0.125 | 0.25 (≈ 0.256 µM) | 2 (≈ 2.05 µM) | ≤ 0.125 | ≤ 0.125 | 0.5 (≈ 0.512 µM) | ≤ 0.125 | 0.25 (≈ 0.256 µM) | ≤ 0.125
CC[C@H]1OC(=O)[C@H](C)C(=O)[C@H](C)[C@@H](O[C@@H]2O[C@H](C)C[C@H](N(C)C)[C@H]2O)[C@](C)(OCCCC2CNc3ccccc3C2)C[C@@H](C)NC(=O)[C@H](C)[C@H](O)[C@@]1(C)O (some centres undefined) | > 64 | 1 (≈ 1.31 µM) | 16 (≈ 21 µM) | ≤ 0.125 | 64 (≈ 84 µM) | 64 (≈ 84 µM) | 64 (≈ 84 µM) | 16 (≈ 21 µM) | ≤ 0.125 | 8 (≈ 10.5 µM) | 2 (≈ 2.62 µM) | > 64 | 8 (≈ 10.5 µM)
CC[C@H]1OC(=O)[C@H](C)C(=O)[C@H](C)[C@@H](O[C@@H]2O[C@H](C)C[C@H](N(C)C)[C@H]2O)[C@](C)(OC[C@H](O)CN2CCN(c3ccc4c(c3F)c(=O)c(C(=O)O)cn4C3CC3)CC2)C[C@@H](C)NC(=O)[C@H](C)[C@H](O)[C@@]1(C)O | 4 (≈ 4.1 µM) | 0.5 (≈ 0.512 µM) | 0.25 (≈ 0.256 µM) | ≤ 0.125 | 0.5 (≈ 0.512 µM) | 0.5 (≈ 0.512 µM) | 8 (≈ 8.2 µM) | 0.5 (≈ 0.512 µM) | ≤ 0.125 | 0.5 (≈ 0.512 µM) | ≤ 0.125 | 0.25 (≈ 0.256 µM) | 0.25 (≈ 0.256 µM)
CC[C@H]1OC(=O)[C@H](C)[C@@H](O[C@@H]2C[C@@](C)(OC)[C@@H](O)[C@H](C)O2)[C@H](C)[C@@H](O[C@@H]2O[C@H](C)C[C@H](N(C)C)[C@H]2O)[C@](C)(OC/C=C/N[C@H](C)Cc2ccc([N+](=O)[O-])cc2)C[C@@H](C)NC(=O)[C@H](C)[C@H](O)[C@@]1(C)O | > 64 | 2 (≈ 2.07 µM) | 16 (≈ 16.5 µM) | ≤ 0.125 | > 64 | 64 (≈ 66.2 µM) | > 64 | 8 (≈ 8.27 µM) | ≤ 0.125 | 32 (≈ 33.1 µM) | 0.5 (≈ 0.517 µM) | > 64 | 64 (≈ 66.2 µM)
O=C(O)c1cn(C2CC2)c2cc(N3CCNCC3)c(F)cc2c1=O [CIPROFLOXACIN] | 0.5 (≈ 1.51 µM) | 0.125 (≈ 0.377 µM) | ≤ 0.125 | 2 (≈ 6.04 µM) | 0.25 (≈ 0.754 µM) | ≤ 0.125 | ≤ 0.125 | 0.25 (≈ 0.754 µM) | ≤ 0.125 | ≤ 0.125 | – | – | 0.25 (≈ 0.754 µM)

Source: ChEMBL document CHEMBL1287771, “Novel hybrids of 15-membered 8a- and 9a-azahomoerythromycin A ketolides and quinolones as potent antibacterials” (2010)
